US20240000748A1, “FORMULATIONS AND METHODS FOR TREATING ACUTE CANNABINOID OVERDOSE” (Anebulo Pharmaceuticals, Inc., priority 2020, published 2024)

Key:
[1] = tested on: rat; experiment: Repeated dose (28 day) toxicity study in rat; format: in vivo; settings: repeated dose 28 day
Description: Repeated dose (28 day) toxicity studies were conducted using ANEB-001 in two species, rat and primate, selected on the basis of acceptable bioavailability and comparison of metabolite profiles with those in human liver microsomes.

[2] = tested on: C57 mice; experiment: Reversal of THC-induced hypolocomotion in mice; format: in vivo; settings: 30 min pre-test
Description: Reversal of THC-induced hypolocomotion in mice: Six C57 mice (Charles River, Wilmington, MA) were administered […] (THC) 3 mg/kg ip, 10 min pre-test. […] In this apparatus, four qualitatively different measures of locomotor activity are automatically scored. […] The magnitude of the effect is similar to that elicited by rimonabant given at 3 mg/kg po, and given 30 min pre-test.

| SMILES | findings at dose levels of 75 mg/kg/day ([1]; 75 mg/kg/day) | no observed adverse effect level ([1]; highest dose tested) | action of THC on the total active time parameter of locomotor measures ([2]; 30 mg/kg orally, THC 3 mg/kg ip 10 min pre-test, 15 min in locomotor activity cages) | magnitude of the effect on THC-induced hypolocomotion (compared with ANEB-001) ([2]; 3 mg/kg po) |
| --- | --- | --- | --- | --- |
| CC(C)(C)NC(=O)N1CC(O[C@H](c2ccc(Cl)cc2)c2ccccc2C(F)(F)F)C1 [ANEB-001, 3-[(R)-2-(trifluoromethyl)-4′-chlorobenzhydryloxy]-N-(tert-butyl)azetidine-1-carboxamide] | hepatic changes consistent with an adaptive response | 75 mg/kg/day | significantly reversed | – |
| Cc1c(C(=O)NN2CCCCC2)nn(-c2ccc(Cl)cc2Cl)c1-c1ccc(Cl)cc1 [rimonabant, reference compound] | – | – | – | similar |
